Results as given in US6855518B2, “Anti-listeria bacteriocin” (Rhodia Chimie, priority 2000, dated 2005).
Entries after “also recorded” stand apart in the source; their conditions may differ. Ends that are not written are not given here.

How the values were obtained:
[1] = test system: Lb. Plantarum DSM 20174; experiment: Well test of bacteriocin activity (inhibition zones on agar); assay type: cell-based, Lactobacillus plantarum
Protocol: (§1) • Bacterial strains and culture media. Lactobacillus sakei 2512 is cultured at 30° C. in MRS medium (DIFCO Laboratories) sterilised for 12 minutes at 110° C. The indicator strains are cultured in BHI medium (brain-heart infusion; DIFCO Laboratories) at 37° C. • Test of activity. BHI medium, supplemented with 10 g/l agar, is inoculated at 1% with a preculture of the indicator strain in stationary phase before being poured into a Petri dish. 50 microliters of sakacin G solution are placed in wells formed in cooled agar with a hole punch. The bacteriocin activity manifests itself in the appearance of inhibition zones around the wells after incubation overnight at 37° C. • Protein analysis. Sakacin G is analysed by mass spectrometry using a Perkin-Elmer Sciex API 165 device equipped with an Ionspray ionisation source. After lyophilisation, the active HPLC fraction is taken up in an acetonitrile/water solution (1:1) containing 0.1% formic acid, and then injected by infusion at a rate of 5 μl/minute.
(§2) The sakacin G sensitivity of 17 bacterial strains was tested by the well test method (see Materials and Methods).

[2] = test system: P. cerevisiae IP 5492; experiment: as above; assay type: cell-based, Pediococcus cerevisiae
Protocol: as §1, §2

[3] = test system: L. inocua 8811; experiment: as above; assay type: cell-based; conditions: 50 microliters of sakacin G solution, BHI agar, overnight at 37° C.
Protocol: as §1, §2

[4] = test system: Ln. Paramesenteroides DSM 20288; experiment: as above; assay type: cell-based; conditions: 50 microliters of sakacin G solution, BHI agar, overnight at 37° C.
Protocol: as §1, §2

[5] = test system: Ln. Mesenteroides DSM 20240; experiment: as above; assay type: cell-based; conditions: 50 microliters of sakacin G solution, BHI agar, overnight at 37° C.
Protocol: as §1, §2

[6] = test system: P. acidilactici ENSAIA 583; experiment: as above; assay type: cell-based; conditions: 50 microliters of sakacin G solution, BHI agar, overnight at 37° C.
Protocol: as §1, §2

[7] = test system: Lb. Delbrueckii DSM 20081; experiment: as above; assay type: cell-based
Protocol: as §1, §2

[8] = test system: Ln. Mesenteroides DSM 20484; experiment: as above; assay type: cell-based; conditions: 50 microliters of sakacin G solution, BHI agar, overnight at 37° C.
Protocol: as §1, §2

[9] = test system: Lc. lactis ATCC11454; experiment: as above; assay type: cell-based; conditions: 50 microliters of sakacin G solution, BHI agar, overnight at 37° C.
Protocol: as §1, §2

[10] = test system: L. ivanovi BUG 496; experiment: as above; assay type: cell-based, Listeria ivanovii
Protocol: as §1, §2

[11] = test system: Enterococcus faecalis; experiment: Inhibition spectrum, Enterococcus faecalis; assay type: cell-based
Protocol: as §1, §2

[12] = test system: Listeria strains; experiment: Inhibition spectrum, for Listeria; assay type: cell-based; conditions: all the Listeria strains tested
Protocol: as §1, §2

[13] = test system: E. durans ENSAIA 630; experiment: Well test of bacteriocin activity (inhibition zones on agar); assay type: cell-based, Enterococcus durans
Protocol: as §1, §2

[14] = test system: Lb. sakei 2515; experiment: as above; assay type: cell-based, Lactobacillus sakei
Protocol: as §1, §2

[15] = test system: E. faecium ENSAIA 631; experiment: as above; assay type: cell-based, Enterococcus faecium
Protocol: as §1, §2

[16] = test system: Lb brevis DSM 20054; experiment: as above; assay type: cell-based, Lactobacillus brevis
Protocol: as §1, §2

[17] = test system: Lb. casei DSM 20011; experiment: as above; assay type: cell-based, Lactobacillus casei
Protocol: as §1, §2

[18] = test system: E. faecalis IP 5430; experiment: as above; assay type: cell-based, Enterococcus faecalis; conditions: 50 microliters of sakacin G solution, BHI agar, overnight at 37° C.
Protocol: as §1, §2

[19] = test system: E. faecalis ENSAIA 636; experiment: as above; assay type: cell-based, Enterococcus faecalis; conditions: 50 microliters of sakacin G solution, BHI agar, overnight at 37° C.
Protocol: as §1, §2

Substance: sakacin G: class IIa anti-Listeria bacteriocin polypeptide from Lactobacillus sakei 2512, about 3834 Da, two disulfide bridges; mature sequence SEQ ID NO: 12 (KYYGNGVSCNSHGCSVNWGQAWTCGVNHLANGGHGVC; disulfide (positions not given here))
- Bacteriocin activity (in words) ([1]; Lactobacillus plantarum): inactive
- Radius of the inhibition halos ([1]; well test, 50 microliters of sakacin G solution, BHI agar, overnight at 37° C., Lb. Plantarum DSM 20174): 0 mm
- Bacteriocin activity (in words) ([2]; Pediococcus cerevisiae): especially effective
- Radius of the inhibition halos ([2]; well test, 50 microliters of sakacin G solution, BHI agar, overnight at 37° C., P. cerevisiae IP 5492): 1 mm
- Radius of the inhibition halos [3]: 3 mm
- Radius of the inhibition halos [4]: 0 mm
- Radius of the inhibition halos [5]: 0 mm
- Radius of the inhibition halos [6]: 0 mm
- Bacteriocin activity (in words) ([7]; Lactobacillus debrueckii): inactive
- Radius of the inhibition halos ([7]; well test, 50 microliters of sakacin G solution, BHI agar, overnight at 37° C., Lb. Delbrueckii DSM 20081): 0 mm
- Radius of the inhibition halos [8]: 0 mm
- Radius of the inhibition halos [9]: 0 mm
- Activity of the purified HPLC fraction (in words) ([10]; HPLC fraction, peak at 23 minutes, Listeria ivanovii BUG 496): active
- Radius of the inhibition halos ([10]; well test, 50 microliters of sakacin G solution, BHI agar, overnight at 37° C., L. ivanovi BUG 496): 6 mm
- Bacteriocin activity (in words) [11]: especially effective; also recorded: active
- Bacteriocin activity (in words) [12]: especially effective; also recorded: active
- Bacteriocin activity (in words) ([13]; Enterococcus durans): especially effective; also recorded: active
- Radius of the inhibition halos ([13]; well test, 50 microliters of sakacin G solution, BHI agar, overnight at 37° C., E. durans ENSAIA 630): 2 mm
- Bacteriocin activity (in words) ([14]; strains of Lactobacillus sakei other than Lactobacillus sakei 2512): especially effective
- Radius of the inhibition halos ([14]; well test, 50 microliters of sakacin G solution, BHI agar, overnight at 37° C., Lb. sakei 2515): 1 mm
- Bacteriocin activity (in words) ([15]; Enterococcus faecium): inactive; also recorded: not against Enterococcus faecium
- Radius of the inhibition halos ([15]; well test, 50 microliters of sakacin G solution, BHI agar, overnight at 37° C., E. faecium ENSAIA 631): 0 mm
- Bacteriocin activity (in words) ([16]; Lactobacillus brevis): inactive
- Radius of the inhibition halos ([16]; well test, 50 microliters of sakacin G solution, BHI agar, overnight at 37° C., Lb brevis DSM 20054): 0 mm
- Bacteriocin activity (in words) ([17]; Lactobacillus casei): inactive
- Radius of the inhibition halos ([17]; well test, 50 microliters of sakacin G solution, BHI agar, overnight at 37° C., Lb. casei DSM 20011): 0 mm
- Radius of the inhibition halos [18]: 2 mm
- Radius of the inhibition halos [19]: 1 mm
